Ki data for 29 compounds are collected here from patent US11203574B2 (BioCryst Pharmaceuticals, Inc., priority 2014, dated 2021).

A word on the pKi: it is the Ki on a negative log10 scale, so that one unit is a factor of ten.

pKi: −log10 of the molar value.

This assay has as its target human plasma kallikrein (Homo sapiens (Human), UniProt P03952). The assay can be described thus: Plasma kallikrein activity assay (chromogenic substrate S2302). Particulars: 2 nM kallikrein, 80 μM S2302, 30° C., pH 7.8; Ki by Cheng-Prusoff equation; values given as ranges; read-out: Ki. The assay is classed as biochemical.

human plasma kallikrein, sequence (P03952 whole entry, looked up): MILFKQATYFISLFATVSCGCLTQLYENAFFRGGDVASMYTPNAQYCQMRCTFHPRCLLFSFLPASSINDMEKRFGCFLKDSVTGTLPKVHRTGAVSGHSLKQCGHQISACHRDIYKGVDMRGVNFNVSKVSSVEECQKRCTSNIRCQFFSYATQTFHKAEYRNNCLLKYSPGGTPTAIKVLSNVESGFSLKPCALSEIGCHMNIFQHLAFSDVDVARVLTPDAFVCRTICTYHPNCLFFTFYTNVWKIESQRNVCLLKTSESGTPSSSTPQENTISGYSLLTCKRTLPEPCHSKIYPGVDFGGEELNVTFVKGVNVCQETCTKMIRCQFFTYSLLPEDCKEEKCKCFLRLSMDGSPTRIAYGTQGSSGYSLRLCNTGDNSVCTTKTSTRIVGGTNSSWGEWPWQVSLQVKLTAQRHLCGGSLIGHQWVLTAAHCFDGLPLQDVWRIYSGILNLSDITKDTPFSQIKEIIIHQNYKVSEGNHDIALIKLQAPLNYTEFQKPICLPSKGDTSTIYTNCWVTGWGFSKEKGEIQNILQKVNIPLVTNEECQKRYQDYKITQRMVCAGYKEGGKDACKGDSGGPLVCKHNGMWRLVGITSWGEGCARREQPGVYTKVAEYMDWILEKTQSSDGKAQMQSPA
human plasma kallikrein, sequence (P03952 whole entry partner, looked up): as the sequence (P03952 whole entry, looked up) above
Protocol: Plasma Kallikrein Activity Assay.
The effect of compounds of the invention on human plasma kallikrein activity was determined using the chromogenic substrates (DiaPharma Group, Inc., West Chester, Ohio, USA). In these experiments, 2 nM kallikrein (Enzyme Research Laboratories, South Bend, Ind., USA) was incubated with 80 μM S2302 (H-D-Pro-Phe-Arg-p-nitroaniline) in the absence or presence of increasing concentrations of compounds of the invention in a final volume of 200 μL Tris-HCl buffer (200 mM NaCl; mM CaCl2; 50 mM Tris-HCl, pH 7.8).
Data were analyzed using SigmaPlot software (Systat Software, Inc., San Jose, Calif., USA) (Four Parameter Logistic Curve).

Take `NCc1cccc(-n2nc(C(F)(F)F)cc2C(=O)Nc2cccc(C(NCC3CC3)c3ccc(O)cc3)c2)c1` (centres unmarked) [135c, 1-(3-(aminomethyl)phenyl)-N-(3-(((cyclopropylmethyl)amino)(4-hydroxyphenyl)methyl)phenyl)-3-(trifluoromethyl)-1H-pyrazole-5-carboxamide]: the pKi is 7.30 to 10.00. In the case of `NCc1cccc(-n2nc(C(F)(F)F)cc2C(=O)Nc2cccc(C(NCC3CC3)c3cccc(O)c3)c2)c1` (centres unmarked) [137a, 1-(3-(Aminomethyl)phenyl)-N-(3-((cyclopropylmethylamino)(3-hydroxyphenyl)methyl)phenyl)-3-(trifluoromethyl)-1H-pyrazole-5-carboxamide] it was 7.30 to 10.00.

For `CC(=O)Nc1ccc(C(NCC2CC2)c2cccc(NC(=O)c3cc(C(F)(F)F)nn3-c3cccc(CN)c3)c2)cc1` (centres unmarked) [138f, N-(3-((4-acetamidophenyl)(cyclopropylmethylamino)methyl)phenyl)-1-(3-(aminomethyl)phenyl)-3-(trifluoromethyl)-1H-pyrazole-5-carboxamide], the pKi was 7.30 to 10.00.

For the compound `Cc1cccc(C(NCC2CC2)c2ccc(F)c(NC(=O)c3cc(C(F)(F)F)nn3-c3cccc(CN)c3)c2)c1` (centres unmarked) [140e, 1-(3-(aminomethyl)phenyl)-N-(5-(((cyclopropylmethyl)amino)(m-tolyl)methyl)-2-fluorophenyl)-3-(trifluoromethyl)-1H-pyrazole-5-carboxamide], the pKi is 7.30 to 10.00.

Regarding `COc1cccc(C(NCC2CC2)c2ccc(F)c(NC(=O)c3cc(C(F)(F)F)nn3-c3cccc(CN)c3)c2)c1` (centres unmarked) [141e, 1-(3-(aminomethyl)phenyl)-N-(5-(((cyclopropylmethyl)amino)(3-methoxyphenyl)methyl)-2-fluorophenyl)-3-(trifluoromethyl)-1H-pyrazole-5-carboxamide], the pKi is 7.30 to 10.00. Turning to `Cc1cc(C(=O)Nc2cccc(C(NCC3CC3)c3ccccc3)c2)n(-c2cccc(CN)c2)n1` (centres unmarked) [143l, 1-(3-(aminomethyl)phenyl)-N-(3-((cyclopropylmethylamino)(phenyl)methyl)phenyl)-3-methyl-1H-pyrazole-5-carboxamide], the pKi was 7.30 to 10.00. In the case of `CC(C)NC(c1ccccc1)c1cccc(NC(=O)c2cc(C(F)(F)F)nn2-c2cccc(CN)c2)c1` (centres unmarked) [144d, 1-(3-(Aminomethyl)phenyl)-N-(3-((isopropylamino)(phenyl)methyl)phenyl)-3-(trifluoromethyl)-1H-pyrazole-5-carboxamide] it was 7.30 to 10.00; in that of `NCc1cccc(-n2nc(C(F)(F)F)cc2C(=O)Nc2cccc(C(NCC3CC3)c3cc(O)ccc3O)c2)c1` (centres unmarked) [146g, 1-(3-(aminomethyl)phenyl)-N-(3-((cyclopropylmethylamino)(2,5-dihydroxyphenyl)methyl)phenyl)-3-(trifluoromethyl)-1H-pyrazole-5-carboxamide], 7.30 to 10.00; in that of `CC(=O)Nc1ccc(C(OCC2CC2)c2cccc(NC(=O)c3cc(C(F)(F)F)nn3-c3cccc(CN)c3)c2)cc1` (centres unmarked) [147e, N-(3-((4-acetamidophenyl)(cyclopropylmethoxy)methyl)phenyl)-1-(3-(aminomethyl)phenyl)-3-(trifluoromethyl)-1H-pyrazole-5-carboxamide], 7.30 to 10.00.

For `NCc1cccc(-n2nc(C(F)(F)F)cc2C(=O)Nc2cccc(C(OCC3CC3)c3ccc(O)cc3)c2)c1` (centres unmarked) [149b, 1-(3-(aminomethyl)phenyl)-N-(3-((cyclopropylmethoxy)(4-hydroxyphenyl)methyl)phenyl)-3-(trifluoromethyl)-1H-pyrazole-5-carboxamide], the pKi is 7.30 to 10.00.

Regarding `NCc1cccc(-n2nc(C(F)(F)F)cc2C(=O)Nc2cccc(C(NCC3CC3)c3cccc(O)c3O)c2)c1` (centres unmarked) [150f, 1-(3-(aminomethyl)phenyl)-N-(3-((cyclopropylmethylamino)(2,3-dihydroxyphenyl)methyl)phenyl)-3-(trifluoromethyl)-1H-pyrazole-5-carboxamide], the negative logarithm of the Ki (pKi) is 7.30 to 10.00. As for `COc1cccc(C(NCC2CC2)c2cccc(NC(=O)c3cc(C(F)(F)F)nn3-c3cccc(CN)c3)c2)c1O` (centres unmarked) [151g, 1-(3-(Aminomethyl)phenyl)-N-(3-((cyclopropylmethylamino)(2-hydroxy-3-methoxyphenyl)methyl)phenyl)-3-(trifluoromethyl)-1H-pyrazole-5-carboxamide], the pKi was 7.30 to 10.00. In the case of `N#Cc1cccc(C(NCC2CC2)c2cccc(NC(=O)c3cc(C(F)(F)F)nn3-c3cccc(CN)c3)c2)c1` (centres unmarked) [152d, 1-(3-(aminomethyl)phenyl)-N-(3-((3-cyanophenyl)(cyclopropylmethylamino)methyl)phenyl)-3-(trifluoromethyl)-1H-pyrazole-5-carboxamide] it was 7.30 to 10.00; in that of `NCc1cccc(-n2nc(C(F)(F)F)cc2C(=O)Nc2cc(C(NCC3CC3)c3ccc(C(N)=O)cc3)ccc2F)c1` (centres unmarked) [153b, 1-(3-(aminomethyl)phenyl)-N-(5-((4-carbamoylphenyl)(cyclopropylmethyl-amino)methyl)-2-fluorophenyl)-3-(trifluoromethyl)-1H-pyrazole-5-carboxamide], 7.30 to 10.00; in that of `COc1ccc(C(NCC2CC2)c2cccc(NC(=O)c3cc(C(F)(F)F)nn3-c3cccc(CN)c3)c2)c2ccccc12` (centres unmarked) [154e, 1-(3-(aminomethyl)phenyl)-N-(3-((cyclopropylmethylamino)(4-methoxynaphthalen-1-yl)methyl)phenyl)-3-(trifluoromethyl)-1H-pyrazole-5-carboxamide], 7.30 to 10.00.

In the case of `NCc1cccc(C(NCC2CC2)c2ccc(F)c(NC(=O)c3cc(C(F)(F)F)nn3-c3cccc(CN)c3)c2)c1` (centres unmarked) [155c, 1-(3-(aminomethyl)phenyl)-N-(5-((3-(aminomethyl)phenyl)(cyclopropylmethylamino)methyl)-2-fluorophenyl)-3-(trifluoromethyl)-1H-pyrazole-5-carboxamide], the pKi was 7.30 to 10.00. In the case of `COC(CCC1CC1)(c1cccnc1)c1cccc(NC(=O)c2cc(C(F)(F)F)nn2-c2cccc(CN)c2)c1` (centres unmarked) [156c, 1-(3-(aminomethyl)phenyl)-N-(3-(3-cyclopropyl-1-methoxy-1-(pyridin-3-yl)propyl)phenyl)-3-(trifluoromethyl)-1H-pyrazole-5-carboxamide] it was 7.30 to 10.00; in that of `CN1CCc2c(ccc(NC(=O)c3cc(C(F)(F)F)nn3-c3cccc(CN)c3)c2F)C1` [164e, 1-(3-(aminomethyl)phenyl)-N-(5-fluoro-2-methyl-1,2,3,4-tetrahydroisoquinolin-6-yl)-3-(trifluoromethyl)-1H-pyrazole-5-carboxamide], 7.30 to 10.00; in that of `CCC(CO)NC(c1ccccc1)c1cccc(NC(=O)c2cc(C(F)(F)F)nn2-c2cccc(CN)c2)c1` (centres unmarked) [168b, 1-(3-(Aminomethyl)phenyl)-N-(3-(((1-hydroxybutan-2-yl)amino)(phenyl)methyl)phenyl)-3-(trifluoromethyl)-1H-pyrazole-5-carboxamide], 7.30 to 10.00. For the compound `NCc1cccc(-n2nc(C(F)(F)F)cc2C(=O)Nc2cccc(C(NC3CCC3)c3ccccc3)c2)c1` (centres unmarked) [188b, 1-(3-(Aminomethyl)phenyl)-N-(3-((cyclobutylamino)(phenyl)methyl)phenyl)-3-(trifluoromethyl)-1H-pyrazole-5-carboxamide], the pKi is 7.30 to 10.00. Consider `NCc1cccc(-n2nc(C(F)(F)F)cc2C(=O)Nc2cccc(C(NCC3CC3)c3cccc4c3OCO4)c2)c1` (centres unmarked) [192f, 1-(3-(aminomethyl)phenyl)-N-(3-(benzo[d][1,3]dioxol-4-yl(cyclopropylmethylamino)methyl)phenyl)-3-(trifluoromethyl)-1H-pyrazole-5-carboxamide], for which the pKi is 7.30 to 10.00. In the case of `Cc1ccccc1C(NCC1CC1)c1cccc(NC(=O)c2cc(C(F)(F)F)nn2-c2cccc(CN)c2)c1` (centres unmarked) [193f, 1-(3-(Aminomethyl)phenyl)-N-(3-(((cyclopropylmethyl)amino)(o-tolyl)methyl)phenyl)-3-(trifluoromethyl)-1H-pyrazole-5-carboxamide] it was 7.30 to 10.00; in that of `NCc1cccc(-n2nc(C(F)(F)F)cc2C(=O)Nc2cccc(C(NCC3CC3)c3cccc(F)c3)c2)c1` (centres unmarked) [195f, 1-(3-(aminomethyl)phenyl)-N-(3-(((cyclopropylmethyl)amino)(3-fluorophenyl)methyl)phenyl)-3-(trifluoromethyl)-1H-pyrazole-5-carboxamide], 7.30 to 10.00; in that of `NCc1cccc(-n2nc(C(F)(F)F)cc2C(=O)Nc2cccc(C(NCC3CC3)c3ccc(F)cc3F)c2)c1` (centres unmarked) [196f, 1-(3-(aminomethyl)phenyl)-N-(3-(((cyclopropylmethyl)amino)(2,4-difluorophenyl)methyl)phenyl)-3-(trifluoromethyl)-1H-pyrazole-5-carboxamide], 7.30 to 10.00. In the case of `NCc1cccc(-n2nc(C(F)(F)F)cc2C(=O)Nc2cccc(C(NCC3CC3)c3cc(F)ccc3F)c2)c1` (centres unmarked) [197f, 1-(3-(aminomethyl)phenyl)-N-(3-(((cyclopropylmethyl)amino)(2,5-difluorophenyl)methyl)phenyl)-3-(trifluoromethyl)-1H-pyrazole-5-carboxamide] it was 7.30 to 10.00; in that of `NCc1cccc(-n2nc(C(F)(F)F)cc2C(=O)Nc2cccc(C(NCC3CC3)c3c(F)cccc3F)c2)c1` (centres unmarked) [198f, 1-(3-(aminomethyl)phenyl)-N-(3-(((cyclopropylmethyl)amino)(2,6-difluorophenyl)methyl)phenyl)-3-(trifluoromethyl)-1H-pyrazole-5-carboxamide], 7.30 to 10.00. In the case of `NCc1cccc(-n2nc(C(F)(F)F)cc2C(=O)Nc2cccc(C(NCC3CC3)c3ccc(Cl)cc3)c2)c1` (centres unmarked) [199f] it was 7.30 to 10.00. With `NCc1cccc(-n2nc(C(F)(F)F)cc2C(=O)Nc2cccc(C(NCC3CC3)c3ccc(Cl)cc3Cl)c2)c1` (centres unmarked) [200f, 1-(3-(aminomethyl)phenyl)-N-(3-((2,4-dichlorophenyl)((cyclopropylmethyl)amino)methyl)phenyl)-3-(trifluoromethyl)-1H-pyrazole-5-carboxamide], the pKi is 7.30 to 10.00. As to `Cc1ccc(C(NCC2CC2)c2cccc(NC(=O)c3cc(C(F)(F)F)nn3-c3cccc(CN)c3)c2)c(C)c1` (centres unmarked) [201f, 1-(3-(aminomethyl)phenyl)-N-(3-(((cyclopropylmethyl)amino)(2,4-dimethylphenyl)methyl)phenyl)-3-(trifluoromethyl)-1H-pyrazole-5-carboxamide], the pKi was 7.30 to 10.00.
